“Also recorded” adds a separate entry of the source.
How the values were obtained:
T87 GBM cells = experiment: 125I-UdR incorporation after MTX/F-UdR exposure, T87 (gammacounter); format: cell-based, human; conditions: for 125I-UdR incorporation compared to non-treated control cells: 1 hour pre-treatment with 1 μM, 16 h later 100 Bq/mL 125I-UdR for 72 h
Protocol: A) 1 hour pre-treatment of T87 GBM cells in vitro with 1 μM MTX or F-UdR before ^125I-UdR exposure increased the ^125I incorporation in the cells. […] The incorporation rate was determined by a gammacounter. […] F-UdR was effective in concentrations ≥1 nM while MTX was effective at ≥10 nM. At a F-UdR concentration of 10 μM, the 125I-incorporation declined presumably do to toxic effects from the F-UdR. […] Opposed to the T87 cell line, the T86 cell line is also known to have an unmethylated MGMT promoter region, thereby being less responsive to TMZ chemotherapy.

[1] = system: TE-671 human rhabdomyosarcoma cells; conditions: IT bolus of 125I-UdR, IT infusion of MTX; cited from earlier work
[2] = system: orthotopic xenografted GBM (evolved from the T87 GSC); experiment: Therapeutic study in orthotopic xenografted GBM-bearing nude rats (PET, survival, histology)
Protocol: All animal procedures were conducted in accordance with the obtained approval from the national Animal Experiments Inspectorate (permission J. Nr. 2008/561-1572). Male athymic nude rats (n=24) aged six weeks (Hsd:RH-Foxnl mu, Harlan laboratories) were anaesthetized subcutaneously (mixture of Hypnorm and Midazolam) and placed in a small animal stereotaxic instrument (Model 900, David Kopf Instruments). Through a midline scalp incision, the bregma was exposed, and one mm anteriorly and two mm laterally to this a burr hole was made. A blunt cannula (Hamilton 7102 syringe) was then advanced to a depth of 3.5 mm (right striatum), and a 2 μl cell suspension of 300,000 T87 single cells in Hank's Balanced Salt Solution (Gibco) supplemented with 0.9% glucose (SAD 500 mg/ml) was slowly injected. After removal of the cannula, the skin was closed with VICRYL 5.0 (Ethicon) disrupted sutures. Two weeks after tumor-cell inoculation, a SMP-200 iPRECIO® Micro Infusion Pump (Data Sciences International) was implanted subcutaneously, since preliminary experiments had shown establishment of tumors at this time point. Infusion protocols (instant mode, constant flow mode and 5 μl/hour infusion rate) were downloaded, and the pumps were conditioned according to Low Flow Infusion Standard Operational Procedure. Rats were anaesthetized and fixated as described above. The midline incision was re-incised and the burr hole was identified. A 4 mm pump connector cannula (PlasticsOne model 328OPM/PK/Spc) was then connected to the pump catheter and implanted (according to the manufactures Technical Note 6) with the tip of the cannula in the center of the bulk tumor. Pumps were loaded with isotone saline (n=8, group I) or 0.1 mM MTX (Sigma-Aldrich) (n=16, group II and III). Finally, the skin was closed with VICRYL 5.0 disrupted sutures. As one of the rats with an MTX loaded pump never woke up after surgery it was censored from the study. Two days later the 23 rats were anaesthetized using isoflurane, and residual saline or MTX was extracted from the pump reservoirs according to the manufacturer's instructions. The reservoirs were refilled with 960 μl of 0.3 μg/m ^127I-UdR (n=8, group I) or twice with the ^125I-UdR activity (n=15, group II and III), enabling 8 days of continuous infusion and a cumulated infused ^125I-UdR activity of 83±7 MBq.
Rats were fed ad libitum and to block the thyroid gland, KI (Sigma-Aldrich) was added to the drinking water (1 mg/ml) from the day of pump implantation and the following 14 days. At the end of the observation period (180 days after completion of treatment) or once animals reached the pre-determined humane endpoints (neurological deficits or >20% weight-loss) they were anaesthetized by isoflurane and euthanized by intravenous pentobarbital injection.
For tumor response evaluation, the animals were PET scanned biweekly in the initial phase and later every third week using the Inveon PET scanner. […] After the tracer injection pairs of animals were placed head-to-head in the scanner and at 40 min. post injection a 14 min. static scan was performed. The acquired data were reconstructed using the ordered subset expectation maximization in two dimensions algorithm without scatter and attenuation correction in the Inveon Acquisition Workplace software module (Siemens).
Brain, thyroid gland, liver and kidneys were removed post-mortem and fixed in 4% formaldehyde. After fixation, brains were divided in one mm thick coronal sections using a rat brain matrix (PlaticsOne) followed by paraffin embedment. […] Three μm sections were cut and all sections were stained with HE for morphological evaluation.

[3] = system: T78 glioblastoma (GBM) cells; experiment: CellTiter Blue viability assay, T78 cells; format: cell-based, human
Protocol: (§1) Cells were cultured as free-floating spheroids in the absence of serum at 36° C. in a humidified incubator with 5% CO2. Two GSCs passage 9-12, designated […], were utilized. They were established, as previously described in our laboratory in 2009 ([…]) and 2010 ([…]), in accordance with the Regional Scientific Ethical Committee (approval number S-VF-20040102). They have; the ability to form new spheroids at clonal density, a karyotype typical of GBMs, the ability to differentiate into cells expressing neuronal, astrocytic and oligodendrocyte markers upon culturering in serum-containing medium and the ability to form highly invasive tumors upon orthotopic xenografting (exemplified for the […] GCS in Supplementary FIG. 1). […] The cells were then incubated in serum-free medium or serum-free medium containing either the non-radioactive, but chemically identical ^[…]-UdR (0.3 μg/ml, Sigma-Aldrich), or increasing activities of ^125I-UdR (0-3 kBq/ml). At day 7, 20 μl of CellTiter Blue (Promega) was added and the cells were returned to the incubator for 6 hours prior to recording of the fluorescence in a Victor3 Multilabel Plate Reader (PerkinElmer Life Sciences).

[4] = Intracerebral distribution by SPECT/CT; format: in vivo, athymic nude rats; conditions: constant intratumoral CED for 8 days, last day of infusion
Protocol: The intracranial distribution of infused ^125I-UdR was measured at the last day of infusion using a Siemens Inveon Small Animal PET/SPECT/CT scanner. The animals were anesthetized using isoflurane and subsequently SPECT scanned for approximately 42 min using 1.8 mm pinhole collimators (3×1.8 RWB collimators) with 30 projections in 180 degrees rotation. […] In one of the animals a low-dose CT scan was performed in combination with the SPECT scan to visualize the surrounding cranium.

T87 glioblastoma cells = experiment: CellTiter Blue viability assay, T87 cells; format: cell-based, human
Protocol: as §1

T87 spheroids = experiment: 2D spheroid migration assay, T87; format: cell-based, human; conditions: for spheroid migration: 3 kBq/ml 125I-UdR or 0.3 μg/ml 127I-UdR, day 0-5, effect from day three
Protocol: (§2) Geltrex (Gibco) and serum-free medium was mixed (1+49) and 1.4 ml was added to each well in 12-well plates. Coated plates were incubated over night at 36° C. and the following morning the supernatant was aspirated. Then, one spheroid (100-200 μm) was aspirated into a 0.1-2.0 μl pipette and meticulously embedded in the coating. After incubating the plate for 75 minutes at 36° C., 800 μl serum-free medium was added. When spheroids started migrating (designated day 0) additionally 200 μl of serum-free medium (serving as untreated controls), ^127I-UdR or ^125I-UdR was added resulting in a final concentration of 0.3 μg/ml or 3 kBq/ml of ^127I-UdR or ^125I-UdR, respectively. Images were obtained daily from day 0 to day 5 using a Leica DM IRB inverted phase-contrast microscope, a Leica DFC300FX camera, and the Leica Application Suite version 2.6.0 RI computer software. The radius of the spheroids was determined (http://imagej.nih.gov/ij/) and the migration speed/day was calculated.

T78 spheroids = experiment: 2D spheroid migration assay, T78; format: cell-based, human; conditions: 3 kBq/ml 125I-UdR, from day three, vs 127I-UdR treated spheroids
Protocol: as §2

C6 glioma = conditions: local implant, 7.4 MBq 125I-UdR, passive diffusion; cited from earlier work
[5] = Adverse effect evaluation (blood samples, post-mortem histology); format: in vivo, athymic nude rats
[6] = co-incubation with 18.5 KBq/mL 125I-UdR for 4 hours

**Q.** With CN(Cc1cnc2nc(N)nc(N)c2n1)c1ccc(C(=O)N[C@@H](CCC(=O)O)C(=O)O)cc1 [MTX, methotrexate] as the compound, how does the “125I-UdR incorporation compared to non-treated control cells” value (T87 GBM cells) read?
**A.** Its value is “significantly increase”.

**Q.** What about the “concentration effective in increasing 125I incorporation” value (T87 GBM cells; [6]) of the same compound?
**A.** Its value is ≥ 10 nM.

**Q.** What about the “median time to onset of paralysis” value [1] of the same compound?
**A.** Its value is “no significant effect”.

**Q.** What does the source list for Cn1nnc2c(C(N)=O)ncn2c1=O [TMZ, temozolomide]?
**A.** maximum survival extrapolated for TMZ monotherapy ([2]; extrapolating the U87MG data to the present findings): 66 days; median survival ([2]; orthotopic GBM rat model, KM-survival plot FIG. 14): 47 days

**Q.** Which “cell survival compared to untreated controls” value ([3]; T78, day 7, most activity concentrations (0-3 kBq/ml), p<0.0001) does the source give for O=c1[nH]c(=O)n([C@H]2C[C@H](O)[C@@H](CO)O2)cc1[125I] [^125I-UdR, 5-[^125I]iodo-2′-deoxyuridine] here?
**A.** Its value is “significantly decreased”.

**Q.** And the “activity concentrations with highly significant effect compared to 127I-UdR” value ([3]; T78, p<0.0001)?
**A.** The value was ≥ 100 Bq/ml.

**Q.** What about the “125I in the tumor region by SPECT/CT” value [4] of the same compound?
**A.** The value was “high concentration”.

**Q.** And the “IC50 (cell viability)” value (T87 glioblastoma cells; T87, 7 days exposure, non-linear regression, range printed 99-120 Bq/mL)?
**A.** The value was 109 Bq/mL.

**Q.** What about the “cell survival compared to untreated controls” value (T87 glioblastoma cells; T87, day 7, most activity concentrations (0-3 kBq/ml), p<0.0001) of the same compound?
**A.** The value was “significantly decreased”.

**Q.** And the “activity concentrations with highly significant effect compared to 127I-UdR” value (T87 glioblastoma cells; T87, p<0.0001)?
**A.** The value was ≥ 100 Bq/ml.

**Q.** And the spheroid migration (T87 spheroids)?
**A.** The spheroid migration was “significantly reduced; also recorded: clearly inhibited”.

**Q.** What about the “spheroid expansion in size” value (T87 spheroids; vs untreated or 127I-UdR exposed spheroids) of the same compound?
**A.** The value was “not able to expand in size”.

**Q.** And the spheroid migration (T78 spheroids)?
**A.** Its spheroid migration is “significantly reduced”.

**Q.** And the “animals surviving the entire observation period of 180 days” value (C6 glioma)?
**A.** The value was 20%.

**Q.** What about the median survival (C6 glioma) of the same compound?
**A.** Its median survival is 35 days.

**Q.** With O=c1[nH]c(=O)n([C@H]2C[C@H](O)[C@@H](CO)O2)cc1I [^127I-UdR, 5-iodo-2′-deoxyuridine] as the compound, how does the spheroid migration (T87 spheroids) read?
**A.** The spheroid migration was “unaffected”.

**Q.** And the “animals developing a PET-detectable tumor / tumor progression by [11C]MeAIB PET” value ([2]; 180 days observation period)?
**A.** Its value is “rapidly progressed”.

**Q.** What about the “animals surviving the entire observation period” value ([2]; 180 days, surviving/total animals) of the same compound?
**A.** Its value is 0/8.

**Q.** And the “time from therapy initiation to the first PET-based tumor detection” value ([2]; [11C]MeAIB PET)?
**A.** Its value is 21 days.

**Q.** What about the “post-mortem histology of the brains” value ([2]; anti-human vimentin staining) of the same compound?
**A.** Its value is “very large tumors”.

**Q.** And the “longest survival after initiation of treatment” value ([2]; death due to massive tumor burden)?
**A.** The value was ≤ 23 days.

**Q.** And the “animals with dark neurons in the hippocampus (CA3 region)” value ([5]; HE stained brain sections)?
**A.** Its value is 4/8.

**Q.** What about the “animals with dark neurons in the neocortex” value ([5]; HE stained brain sections) of the same compound?
**A.** Its value is 7/8.

**Q.** What about the thyroid gland histology ([5]; HE stained sections) of the same compound?
**A.** The thyroid gland histology was “normofollicular architecture”.

**Q.** And the “liver histology (hepatocyte necrosis, haemorrhage, inflammation)” value ([5]; PAS-diastase staining)?
**A.** The value was “no signs of hepatocyte necrosis, haemorrhage or inflammation”.

**Q.** And the “animals surviving the entire observation period of 180 days” value (C6 glioma)?
**A.** The value was “No ^127I-UdR treated animal survived the entire observation period”.

**Q.** What about the median survival (C6 glioma) of the same compound?
**A.** The median survival was 20 days.

**Q.** What does the source list for O=c1[nH]c(=O)n([C@H]2C[C@H](O)[C@@H](CO)O2)cc1F [F-UdR, 5-Fluoro-2′-deoxyuridine]?
**A.** killing effect compared with MTX (T87 glioblastoma cells; T87, 7 days exposure): stronger killing effect; 125I-UdR incorporation compared to non-treated control cells (T87 GBM cells): significantly increase; concentration effective in increasing 125I incorporation (T87 GBM cells; [6]): ≥ 1 nM; 125I-incorporation at 10 μM (T87 GBM cells; co-incubation with 18.5 KBq/mL 125I-UdR for 4 hours, presumably toxic effects): declined

From patent US10583210B2, “Auger electron therapy for glioblastoma” (Syddansk Universitet, priority 2014, dated 2020)
